Experimental findings from patent US6689778B2, “Inhibitors of Src and Lck protein kinases” (Vertex Pharmaceuticals Incorporated, priority 2001, dated 2004) are described below.

Experiment [1] addresses T1, human Src kinase (Homo sapiens, UniProt P12931).
T1 construct: full length recombinant human Src kinase (from Upstate Biotechnology, cat. no. 14-117); purchased Upstate Biotechnology 14-117; host or cells: baculovirus-infected (insect) cells
The experiment in a line: Src inhibition assay (radioactivity-based assay A or spectrophotometric assay B). The class given is biochemical. The following applies: recombinant human Src, poly Glu-Tyr substrate; assay A or B not specified. The procedure:
The compounds were evaluated as inhibitors of human Src kinase using either a radioactivity-based assay or spectrophotometric assay.
(§1) The compounds were assayed as inhibitors of full length recombinant human Src kinase (from Upstate Biotechnology, cat. no. 14-117) expressed and purified from baculo viral cells. Src kinase activity was monitored by following the incorporation of ^33P from ATP into the tyrosine of a random poly Glu-Tyr polymer substrate of composition, Glu:Tyr=4:1 (Sigma, cat. no. P-0275). The following were the final concentrations of the assay components: 0.05 M HEPES, pH 7.6, 10 mM MgCl2, 2 mM DTT, 0.25 mg/ml BSA, 10 μM ATP (1-2 μCi ^33P-ATP per reaction), 5 mg/ml poly Glu-Tyr, and 1-2 units of recombinant human Src kinase. In a typical assay, all the reaction components with the exception of ATP were pre-mixed and aliquoted into assay plate wells. Inhibitors dissolved in DMSO were added to the wells to give a final DMSO concentration of 2.5%. The assay plate was incubated at 30° C. for 10 minutes before initiating the reaction with ^33P-ATP. After 20 minutes of reaction, the reactions were quenched with 150 μl of 10% trichloroacetic acid (TCA) containing 20 mM Na3PO4. The quenched samples were then transferred to a 96-well filter plate (Whatman, UNI-Filter GF/F Glass Fiber Filter, cat no. 7700-3310) installed on a filter plate vacuum manifold. Filter plates were washed four times with 10% TCA containing 20 mM Na3PO4 and then 4 times with methanol. 200 μl of scintillation fluid was then added to each well. The plates were sealed and the amount of radioactivity associated with the filters was quantified on a TopCount scintillation counter. The radioactivity incorporated was plotted as a function of the inhibitor concentration. The data was fitted to a competitive inhibition kinetics model to get the Ki for the compound.
The ADP produced from ATP by the human recombinant Src kinase-catalyzed phosphorylation of poly Glu-Tyr substrate was quanitified using a coupled enzyme assay (Fox et al (1998) Protein Sci 7, 2249). In this assay one molecule of NADH is oxidised to NAD for every molecule of ADP produced in the kinase reaction. The disappearance of NADH can be conveniently followed at 340 nm.
The following were the final concentrations of the assay components: 0.025 M HEPES, pH 7.6, 10 mM MgCl2, 2 mM DTT, 0.25 mg/ml poly Glu-Tyr, and 25 nM of recombinant human Src kinase. Final concentrations of the components of the coupled enzyme system were 2.5 mM phosphoenolpyruvate, 200 μM NADH, 30 μg/ml pyruvate kinase and 10 μg/ml lactate dehydrogenase.
In a typical assay, all the reaction components with the exception of ATP were pre-mixed and aliquoted into assay plate wells. Inhibitors dissolved in DMSO were added to the wells to give a final DMSO concentration of 2.5%. The assay plate was incubated at 30° C. for 10 minutes before initiating the reaction with 100 μM ATP. The absorbance change at 340 nm with time, the rate of the reaction, was monitored on a molecular devices plate reader. The data of rate as a function of the inhibitor concentration was fitted to compettive inhibition kinetics model to get the Ki for the compound.

Experiment [2] has as its target human Lck kinase (UniProt P06239). The experiment in a line: Lck inhibition assay (radioactivity-based assay A or spectrophotometric assay B). Format: biochemical. To be noted: poly Glu-Tyr substrate; assay A or B not specified; read-out: Lck Activity (Ki class). Here is the method: The compounds were evaluated as inhibitors of human Lck kinase using either a radioactivity-based assay or spectrophotometric assay.
as §1, with “length bovine thymus Lck” for “length recombinant human Src”, “no. 14-106)” for “no. 14-117)”, “cells. Lck” for “cells. Src”, “components: 0.025” for “components: 0.05”, “20 min” for “20 minutes”
The ADP produced from ATP by the human recombinant Lck kinase-catalyzed phosphorylation of poly Glu-Tyr substrate was quanitified using a coupled enzyme assay (Fox et al (1998) Protein Sci 7, 2249). In this assay one molecule of NADH is oxidised to NAD for every molecule of ADP produced in the kinase reaction. The disappearance of NADH can be conveniently followed at 340 nm.
The following were the final concentrations of the assay components: 0.025 M HEPES, pH 7.6, 10 mM MgCl2, 2 mM DTT, 5 mg/ml poly Glu-Tyr, and 50 nM of recombinant human Lck kinase. Final concentrations of the components of the coupled enzyme system were 2.5 mM phosphoenolpyruvate, 200 μM NADH, 30 μg/ml pyruvate kinase and 10 μg/ml lactate dehydrogenase.
In a typical assay, all the reaction components with the exception of ATP were pre-mixed and aliquoted into assay plate wells. Inhibitors dissolved in DMSO were added to the wells to give a final DMSO concentration of 2.5%. The assay plate was incubated at 30° C. for 10 minutes before initiating the reaction with 150 μM ATP. The absorbance change at 340 nm with time, the rate of the reaction, was monitored on a molecular devices plate reader. The data of rate as a function of the inhibitor concentration was fitted to competitive inhibition kinetics model to get the Ki for the compound.

pKi: −log10 of the molar value.

One may read the pKi as the Ki on a negative log10 scale, so that one unit is a factor of ten.

T1 sequence (P12931 whole entry): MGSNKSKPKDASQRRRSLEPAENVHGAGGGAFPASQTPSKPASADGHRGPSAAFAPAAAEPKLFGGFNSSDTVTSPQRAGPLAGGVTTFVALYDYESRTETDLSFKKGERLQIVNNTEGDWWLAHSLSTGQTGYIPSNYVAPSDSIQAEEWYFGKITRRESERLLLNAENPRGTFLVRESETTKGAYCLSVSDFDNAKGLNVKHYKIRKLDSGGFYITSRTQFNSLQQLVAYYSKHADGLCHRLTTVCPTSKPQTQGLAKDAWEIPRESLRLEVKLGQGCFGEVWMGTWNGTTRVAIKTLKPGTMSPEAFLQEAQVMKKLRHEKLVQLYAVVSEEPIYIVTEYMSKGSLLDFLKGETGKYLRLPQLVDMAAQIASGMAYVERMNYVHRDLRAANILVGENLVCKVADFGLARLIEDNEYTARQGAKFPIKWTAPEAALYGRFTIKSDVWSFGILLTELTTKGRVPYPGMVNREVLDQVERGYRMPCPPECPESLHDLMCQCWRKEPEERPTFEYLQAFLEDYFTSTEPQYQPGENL

`Cc1onc(C2CCCCC2)c1-c1ccnc(Nc2cccc(OCCOC3CCCCO3)c2)n1` (centres unmarked) [IIIa-1]: the pKi in experiment [1] and in experiment [2] was greater than 7.00 throughout.
As for `Cc1onc(C2CCCCC2)c1-c1ccnc(Nc2cccc(OCCN3CCOCC3)c2)n1` [IIIa-2], the negative-log Ki (pKi) in experiment [1] and in experiment [2] was greater than 7.00 throughout.
As to `Cc1onc(C2CCCCC2)c1-c1ccnc(Nc2cccc(OCCN3CCCC3)c2)n1` [IIIa-3], the pKi in experiment [1] and in experiment [2] was greater than 7.00 in each case.
With `Cc1onc(C2CCCCC2)c1-c1ccnc(Nc2cccc(OCCN3CCCCC3)c2)n1` [IIIa-4], the pKi in experiment [1] and in experiment [2] was greater than 7.00 in each case.
For the compound `Cc1onc(C2CCCCC2)c1-c1ccnc(Nc2cccc(OCCN3CCC(O)CC3)c2)n1` [IIIa-5], the pKi in experiment [1] and in experiment [2] was greater than 7.00 throughout.
Take `Cc1onc(C2CCCCC2)c1-c1ccnc(Nc2cccc(OCCN3CCC(CO)CC3)c2)n1` [IIIa-6]: the pKi in experiment [1] and in experiment [2] was greater than 7.00 each time.
For the compound `Cc1onc(C2CCCCC2)c1-c1ccnc(Nc2cccc(OCCN3CCC[C@H]3CO)c2)n1` [IIIa-7], the pKi in experiment [1] and in experiment [2] was greater than 7.00 in each case.
Regarding `Cc1onc(C2CCCCC2)c1-c1ccnc(Nc2cccc(OCCN3CCN(CCO)CC3)c2)n1` [IIIa-8], the pKi in experiment [1] and in experiment [2] was greater than 7.00 each time.
On to `Cc1onc(C2CCCCC2)c1-c1ccnc(Nc2cccc(OCCCN3CCC(O)CC3)c2)n1` [IIIa-9], for which the pKi in experiment [2] is greater than 7.00.
On to `Cc1onc(C2CCCCC2)c1-c1ccnc(Nc2cccc(OCCCN3CCC(CO)CC3)c2)n1` [IIIa-10], for which the pKi in experiment [2] is greater than 7.00.
The same measure, in the same setting: then `Cc1onc(C2CCCCC2)c1-c1ccnc(Nc2cccc(OCCCN3CCC[C@H]3CO)c2)n1` [IIIa-11], with greater than 7.00; and `Cc1onc(C2CCCCC2)c1-c1ccnc(Nc2cccc(OCCCN3CCN(CCO)CC3)c2)n1` [IIIa-12], with greater than 7.00.
Still for that read-out and setting: then `Cc1onc(C2CCCCC2)c1-c1ccnc(Nc2cccc(OCCCN3CCCC(O)C3)c2)n1` (centres unmarked) [IIIa-13], with greater than 7.00.
For `Cc1onc(C2CCCCC2)c1-c1ccnc(Nc2cccc(OCCCN3CCOCC3)c2)n1` [IIIa-15], the pKi in experiment [2] is greater than 7.00.
For the compound `Cc1onc(C2CCCCC2)c1-c1ccnc(Nc2cccc(OCCCN3CCCC3)c2)n1` [IIIa-16], the pKi in experiment [2] was greater than 7.00.
Regarding `Cc1onc(C2CCCCC2)c1-c1ccnc(Nc2cccc(OCCCN3CCCCC3)c2)n1` [IIIa-17], the pKi in experiment [2] is greater than 7.00.
In the case of `Cc1onc(C2CCCCC2)c1-c1ccnc(Nc2cccc(OCCCN3CCNCC3)c2)n1` [IIIa-18], in experiment [2], the pKi was greater than 7.00.
For the compound `Cc1onc(C2CCCCC2)c1-c1ccnc(Nc2cccc(OCCCCN3CCC(O)CC3)c2)n1` [IIIa-19], the pKi in experiment [2] was greater than 7.00.
On to `Cc1onc(C2CCCCC2)c1-c1ccnc(Nc2cccc(OCCCCN3CCN(CCO)CC3)c2)n1` [IIIa-22], for which the pKi in experiment [2] is greater than 7.00.
With `CCN1CCN(CCCCOc2cccc(Nc3nccc(-c4c(C5CCCCC5)noc4C)n3)c2)CC1` [IIIa-23], the pKi in experiment [2] was greater than 7.00.
The same measure, in the same setting: then `Cc1onc(C2CCCCC2)c1-c1ccnc(Nc2cccc(OCCCCN3CCOCC3)c2)n1` [IIIa-24], with greater than 7.00; and `Cc1onc(C2CCCCC2)c1-c1ccnc(Nc2cccc(OCCCCN3CCCC3)c2)n1` [IIIa-25], with greater than 7.00.
On to `Cc1onc(C2CCCCC2)c1-c1ccnc(Nc2cccc(OCCCCN3CCCCC3)c2)n1` [IIIa-26], for which the pKi in experiment [2] was greater than 7.00.
On the same count and under the same terms, under `Cc1onc(C2CCCCC2)c1-c1ccnc(Nc2cccc(OC3CCCN(C(=O)OC(C)(C)C)C3)c2)n1` (centres unmarked) [IIIa-28] stands less than 6.00.
Same read-out and setting: under `Cc1onc(C2CCCCC2)c1-c1ccnc(Nc2cccc(OC3CCCNC3)c2)n1` (centres unmarked) [IIIa-29] stands greater than 7.00; under `Cc1onc(C2CCCCC2)c1-c1ccnc(Nc2cccc(OCC3CCCN(C(=O)OC(C)(C)C)C3)c2)n1` (centres unmarked) [IIIa-30], less than 6.00.
`Cc1onc(C2CCCCC2)c1-c1ccnc(Nc2cccc(OCC3CCCNC3)c2)n1` (centres unmarked) [IIIa-31]: the pKi in experiment [2] was greater than 7.00.
On the same count and under the same terms, then `COc1cc(Nc2ncc(C(=O)O)c(-c3c(C4CCCCC4)noc3C)n2)cc(OC)c1` [IIIb-24], with less than 6.00; and `COc1cc(Nc2ncc(CO)c(-c3c(C4CCCCC4)noc3C)n2)cc(OC)c1` [IIIb-25], with less than 6.00; and `COc1cc(Nc2ncc(C(N)=O)c(-c3c(C4CCCCC4)noc3C)n2)cc(OC)c1` [IIIb-26], with less than 6.00.
The same measure, in the same setting: then `COc1cc(Nc2ncc(C#N)c(-c3c(C4CCCCC4)noc3C)n2)cc(OC)c1` [IIIb-27], with 6.00 to 7.00.
As to `CCc1onc(C2CCCCC2)c1-c1nc(Nc2cccc(O)c2)ncc1C` [IIIb-28], the pKi in experiment [1] and in experiment [2] was greater than 7.00 each time.
For `CCCOCc1cnc(Nc2cc(OC)cc(OC)c2)nc1-c1c(C2CCCCC2)noc1C` [IIIb-29], the pKi in experiment [2] was greater than 7.00.
As to `Cc1onc(C2CCCCC2)c1-c1ccnc(Nc2cccc(NC(=O)CCN3CCCCC3)c2)n1` [Va-1], the pKi in experiment [1] and in experiment [2] was greater than 7.00 each time.
